Assay results from PMC7238232, “Acamprosate Is a Substrate of the Human Organic Anion Transporter (OAT) 1 without OAT3 Inhibitory Properties: Implications for Renal Acamprosate Secretion and Drug–Drug Interactions” (Pharmaceutics, 2020).
“And” between values parts separate entries of the source, which are not always exact repeats. Identical values can stand only once. Like-named read-outs stand apart in the source and are kept apart here.

Key:
HEK293-Flp-In OAT3 cells = assay: CellTiter-Glo cell viability assay, OAT3 transfected cells
HEK293-Flp-In mock cells [1] = assay: CellTiter-Glo cell viability assay, mock cells
HEK293-Flp-In OAT1 cells = assay: CellTiter-Glo cell viability assay, OAT1 transfected cells
human OAT1 = conditions: cited from earlier work; for Km: read-out: Km of other OAT1 substrates
HEK293-Flp-In mock cells [2] = assay: Control uptake studies in HEK293-Flp-In mock cells; conditions: for effect on uptake of [14C]-PAH in mock cells: 9.5 µM [14C]-PAH, 200 µM PAH, 300 µM or 0.02–1022 µM probenecid, acamprosate; for effect on uptake of [3H]-E3S in mock cells: 0.02 µM [3H]-E3S, 200 µM E3S, 300 µM or 0.2–1022 µM probenecid, 10,000 µM acamprosate, Lab. 2
Protocol: All uptake experiments were performed on 24- or 96-well plates. Before the experiment initiation, the cells were incubated with either 500 or 200 µL∙well^−1 prewarmed buffer for 10 min at 37 °C in a microplate incubator (VWR International AB, Stockholm, Sweden), without shaking. […] The experiment was stopped by adding 200 µL∙well^−1 of ice-cold buffer and subsequent rinse three times with the same amount of buffer. […] A total of 50 µL of cell lysate from each well was transferred to 96-well Luma plates bottom coated with dry scintillant. Then, 2∙20 µL of each donor and three 50 µL blank samples were applied on the same plate. The dry plates were covered with transparent seals and analyzed using a TopCount NXT Microplate Scintillation and Luminescence Counter (Perkin Elmer, Waltham, MA, USA). The remaining 20 µL cell lysate was neutralized with 20 µL 1M HCl∙well^−1, samples were mixed thoroughly and the total protein content in all the wells was measured using a BCA protein assay kit, microplate method, and a Tecan Safire II fluorometer (Tecan Austria GmbH, Grödig, Austria). […] The total protein content was measured by using a BCA protein assay kit and a FLUOStar Omega fluorescence microplate reader (BMG Labtech, Ortenberg, Germany). The protein assay for the OAT3 and mock cell lines was performed in four independent wells of each cell line, seeded and treated in the same manner as the cells used in the uptake assay. For all the OAT1, OAT3, and mock isotope uptake studies, the radiolabelled tracer accumulation (pmol) in each well was calculated by first determining the activity of the isotope (DPM∙pmol^−1) from the radioactivity (DPM) of the donor sample divided by the theoretical isotope concentration (pmol), then dividing the total radioactivity in the well (DPM) to the specific activity of the isotope (DPM∙pmol^−1).

human kidney slices = test system: human kidney slices; parameters: method as in PMID 17255469; conditions: read-out: Km of PAH; cited from earlier work
OAT3 = molecular target: T1, OAT3 (Homo sapiens, UniProt Q8TCC7); assay: [3H]-E3S uptake and its inhibition in HEK293-Flp-In OAT3 cells; format: cell-based; conditions: 0.02 µM [3H]-E3S; 200 µM E3S, 300 µM probenecid, 1000 or 10,000 µM acamprosate; Lab. 2
T1 sequence (Q8TCC7 1-542): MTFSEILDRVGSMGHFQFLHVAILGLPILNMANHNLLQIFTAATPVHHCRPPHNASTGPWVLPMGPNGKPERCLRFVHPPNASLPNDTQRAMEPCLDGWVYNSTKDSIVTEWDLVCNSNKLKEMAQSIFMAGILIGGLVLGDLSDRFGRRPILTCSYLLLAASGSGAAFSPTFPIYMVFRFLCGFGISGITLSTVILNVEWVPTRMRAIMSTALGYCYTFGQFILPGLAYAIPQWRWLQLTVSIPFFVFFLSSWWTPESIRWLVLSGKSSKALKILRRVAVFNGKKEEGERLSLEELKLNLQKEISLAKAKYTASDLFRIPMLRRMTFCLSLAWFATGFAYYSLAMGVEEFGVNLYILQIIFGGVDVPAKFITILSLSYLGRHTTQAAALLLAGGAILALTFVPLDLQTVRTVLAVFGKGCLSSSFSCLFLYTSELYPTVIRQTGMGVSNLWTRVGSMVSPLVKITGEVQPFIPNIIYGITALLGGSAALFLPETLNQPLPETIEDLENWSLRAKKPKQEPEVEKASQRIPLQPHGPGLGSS
Protocol: All uptake experiments were performed on 24- or 96-well plates. Before the experiment initiation, the cells were incubated with either 500 or 200 µL∙well^−1 prewarmed buffer for 10 min at 37 °C in a microplate incubator (VWR International AB, Stockholm, Sweden), without shaking. […] The experiment was stopped by adding 200 µL∙well^−1 of ice-cold buffer and subsequent rinse three times with the same amount of buffer. In Lab. 1 the sample analysis of the OAT1/OAT3/mock studies consisted in removing the rinsing buffer and lysing the cells with 70 µL 1M NaOH, following by incubation for 60 min at 37 °C and 100 rpm. A total of 50 µL of cell lysate from each well was transferred to 96-well Luma plates bottom coated with dry scintillant. Then, 2∙20 µL of each donor and three 50 µL blank samples were applied on the same plate. The dry plates were covered with transparent seals and analyzed using a TopCount NXT Microplate Scintillation and Luminescence Counter (Perkin Elmer, Waltham, MA, USA). The remaining 20 µL cell lysate was neutralized with 20 µL 1M HCl∙well^−1, samples were mixed thoroughly and the total protein content in all the wells was measured using a BCA protein assay kit, microplate method, and a Tecan Safire II fluorometer (Tecan Austria GmbH, Grödig, Austria). For the experiments in Lab. 2, the cells were lysed by adding 200 µL 0.1% Triton X-100 and incubated for 5 min at 37 °C and 100 rpm. […] The total protein content was measured by using a BCA protein assay kit and a FLUOStar Omega fluorescence microplate reader (BMG Labtech, Ortenberg, Germany). The protein assay for the OAT3 and mock cell lines was performed in four independent wells of each cell line, seeded and treated in the same manner as the cells used in the uptake assay. For all the OAT1, OAT3, and mock isotope uptake studies, the radiolabelled tracer accumulation (pmol) in each well was calculated by first determining the activity of the isotope (DPM∙pmol^−1) from the radioactivity (DPM) of the donor sample divided by the theoretical isotope concentration (pmol), then dividing the total radioactivity in the well (DPM) to the specific activity of the isotope (DPM∙pmol^−1).
A range of preincubation solutions was prepared at the same concentrations of acamprosate applied in the inhibition assays. Acamprosate was dissolved in HBSS buffered with 10 mM HEPES and the pH was adjusted to 7.40 ± 0.01. The preincubation solutions were prewarmed to 37 °C and applied to the corresponding cells after removing the cell growth medium. The preincubation was done for 3 h, at 37 °C, without shaking. After the preincubation, the solutions were removed, and the inhibition experiment was performed as described in the Section 2.6.
The obtained intracellular amounts (pmol) were normalized to the assay time (min) and cell surface area (cm^2) or protein amount (mg protein) to obtain a term hereafter referred to as uptake rate. […] Assuming competitive interaction, equilibrium dissociation constants, Ki, were calculated from the IC50 value for each substrate/inhibitor pair, at substrate Km, using the Cheng–Prusoff equation [24].

OAT = test system: OAT; parameters: method as in PMID 23085876; conditions: OAT mediated DDI by probenecid, compared to control; cited from earlier work
[3] = probenecid, oral, cited from earlier work
[4] = Clinical pharmacokinetics in humans (literature); conditions: probenecid, oral, calculated from Cmax and fu
[5] = substrate: CC(=O)NCCCS(=O)(=O)O; assay: Acamprosate intracellular uptake and inhibition of uptake in HEK293-Flp-In OAT1 cells (LC/MS-MS); format: cell-based, human; conditions: other: HEK293-Flp-In OAT1 cells, 10 min, pH 7.4, Lab. 1
[6] = 3 h, 1000 µM p-aminohippuric acid, 200 µM estrone-3-sulfate (Figure 8A)

CCCCCCCCCCCCOS(=O)(=O)[O-].[Na+] [SDS, sodium dodecyl sulfate]
decrease in cell viability (HEK293-Flp-In OAT3 cells; 0.5% SDS, 3 h incubation): more than 95%
decrease in cell viability (HEK293-Flp-In mock cells [1]; 0.5% SDS, 3 h incubation): more than 95%
decrease in cell viability (HEK293-Flp-In OAT1 cells; 0.5% SDS, 3 h incubation): approximately 50%

CC(=O)Nc1ccc(O)cc1 [acetaminophen]
IC50 (human OAT1; read-out: IC50 of other drug substances inhibiting OAT1): 639 µM

Nc1nc2c(ncn2COCCO)c(=O)[nH]1 [acyclovir]
Km (human OAT1): 342 µM

O=S(=O)(O)CCSSCCS(=O)(=O)O [dimesna]
Km (human OAT1): 636 µM

Nc1nc(O)c2ncn(COC(CO)CO)c2n1 [ganciclovir]
Km (human OAT1): 896 µM

CN(Cc1cnc2nc(N)nc(N)c2n1)c1ccc(C(=O)N[C@@H](CCC(=O)O)C(=O)O)cc1 [methotrexate]
Km (human OAT1): 554 to 724 µM

Nc1ccc(C(=O)NCC(=O)O)cc1 [p-aminohippuric acid]
effect on cell viability (HEK293-Flp-In OAT3 cells; [6]): did not decrease cell viability
effect on uptake of [14C]-PAH in mock cells (HEK293-Flp-In mock cells [2]; Lab. 1): no effect
saturability of dose-dependent substrate uptake in mock cells (HEK293-Flp-In mock cells [2]; same substrate concentrations as in transfected cells, acamprosate 0.33–3300 µM): not saturable
Km (human kidney slices): ~39 µM
effect on cell viability (HEK293-Flp-In mock cells [1]; [6]): did not decrease cell viability
effect on cell viability (HEK293-Flp-In OAT1 cells; 3 h, 1000 µM p-aminohippuric acid, 200 µM estrone-3-sulfate (Figure 8B)): did not decrease cell viability

CCCN(CCC)S(=O)(=O)c1ccc(C(=O)O)cc1 [probenecid]
effect on uptake of [3H]-E3S in OAT3 expressing cells (OAT3): significantly decreased
effect on uptake of [3H]-E3S in mock cells (HEK293-Flp-In mock cells [2]): no inhibition
effect on uptake of [3H]-E3S in mock cells (HEK293-Flp-In mock cells [2]; listed as Probenecid): no inhibitory effect
effect on uptake of [14C]-PAH in mock cells (HEK293-Flp-In mock cells [2]; Lab. 1): no effect
effect on uptake of [14C]-PAH in mock cells (HEK293-Flp-In mock cells [2]; Lab. 1, listed as Probenecid): no inhibitory effect
effect on acamprosate uptake in mock cells (HEK293-Flp-In mock cells [2]; 200 µM acamprosate, 0.02–1022 µM probenecid, Lab. 1): no inhibitory effect
change in AUC of other inhibited drugs (OAT): 1.1–2.4 fold
change in CLR of other inhibited drugs (OAT): 0.3–0.7 fold
Cmax ([3]; 500 mg): 124 ± 30 µM
fu, fraction unbound in plasma ([3]; 500 mg): 0.07 [53]
Cmax ([3]; 1000 mg): 244 ± 94 µM
fu, fraction unbound in plasma ([3]; 1000 mg): 0.11 [53]
Cmax ([3]; 2000 mg): 521 ± 166 µM
fu, fraction unbound in plasma ([3]; 2000 mg): 0.17 [53]
Cmax,u ([4]; 500 mg): 8.66 ± 2.09 µM
Cmax,u ([4]; 1000 mg): 26.83 ± 10.37 µM
Cmax,u ([4]; 2000 mg): 88.53 ± 28.24 µM

B1: OAT1 (Homo sapiens) (protein)
chain: MAFNDLLQQVGGVGRFQQIQVTLVVLPLLLMASHNTLQNFTAAIPTHHCRPPADANLSKNGGLEVWLPRDRQGQPESCLRFTSPQWGLPFLNGTEANGTGATEPCTDGWIYDNSTFPSTIVTEWDLVCSHRALRQLAQSLYMVGVLLGAMVFGYLADRLGRRKVLILNYLQTAVSGTCAAFAPNFPIYCAFRLLSGMALAGISLNCMTLNVEWMPIHTRACVGTLIGYVYSLGQFLLAGVAYAVPHWRHLQLLVSAPFFAFFIYSWFFIESARWHSSSGRLDLTLRALQRVARINGKREEGAKLSMEVLRASLQKELTMGKGQASAMELLRCPTLRHLFLCLSMLWFATSFAYYGLVMDLQGFGVSIYLIQVIFGAVDLPAKLVGFLVINSLGRRPAQMAALLLAGICILLNGVIPQDQSIVRTSLAVLGKGCLAASFNCIFLYTGELYPTMIRQTGMGMGSTMARVGSIVSPLVSMTAELYPSMPLFIYGAVPVAASAVTVLLPETLGQPLPDTVQDLESRWAPTQKEAGIYPRKGKQTRQQQEHQKYMVPLQASAQEKNGL
notes: expressed in transfected cells; host or cells: HEK293-Flp-In
Km [5]: 700 µM and 698 ± 192 µM
